Assay results from paper PMC7465669, “Screening of Heteroaromatic Scaffolds against Cystathionine Beta-Synthase Enables Identification of Substituted Pyrazolo[3,4-c]Pyridines as Potent and Selective Orthosteric Inhibitors” (Molecules, 2020).

Biological target: T1, cystathionine β-synthase (CBS) (Homo sapiens, UniProt P35520)
T1 construct: full-length human CBS, GST-fusion
T1 sequence (P35520 1-551): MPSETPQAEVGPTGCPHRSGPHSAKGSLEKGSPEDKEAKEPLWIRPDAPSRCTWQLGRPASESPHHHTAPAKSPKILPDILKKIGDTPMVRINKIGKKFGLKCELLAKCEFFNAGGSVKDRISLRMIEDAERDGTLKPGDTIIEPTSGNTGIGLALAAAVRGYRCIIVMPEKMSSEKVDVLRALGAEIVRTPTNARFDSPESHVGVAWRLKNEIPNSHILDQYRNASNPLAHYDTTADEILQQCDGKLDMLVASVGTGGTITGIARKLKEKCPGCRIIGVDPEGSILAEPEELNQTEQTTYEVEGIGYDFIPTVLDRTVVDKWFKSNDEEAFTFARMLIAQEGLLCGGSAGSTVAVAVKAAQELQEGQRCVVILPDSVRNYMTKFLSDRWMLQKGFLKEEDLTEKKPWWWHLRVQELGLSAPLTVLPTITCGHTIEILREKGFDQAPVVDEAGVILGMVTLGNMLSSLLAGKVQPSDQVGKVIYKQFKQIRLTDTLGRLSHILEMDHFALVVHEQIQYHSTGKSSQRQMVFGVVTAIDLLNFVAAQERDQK
Assay: methylene blue H2S assay, recombinant enzyme; confirmed by AzMC assay (IC50 […])
Assay type: biochemical

IC50: 11 µM
SMILES: COc1ccc(Cn2ncc3cc(Nc4ccc(N5CCN(C)CC5)cc4)nc(N4CCN(C)CC4)c32)cc1 [compound 1, 1]
